Consider two compounds from US20220088231A1, “RADIOIMMUNOCONJUGATES AND DNA DAMAGE AND REPAIR INHIBITOR COMBINATION THERAPY” (Fusion Pharmaceuticals Inc., priority 2018, published 2022).

The structures appear in SMILES notation. “Also recorded” adds a separate entry of the source.

In data set [1] the test system is y-H2AX foci (DSB formation). Briefly: Immunohistochemical analysis of y-H2AX foci after olaparib treatment in xenograft models. To be noted: Example 3: after olaparib treatment, i.p. 10-100 mg/kg; Colo-205 and A549 xenograft models. It is filed as in vivo. Here is the method: An in vivo efficacy study was conducted with olaparib alone as a single agent. Olaparib was given as a single agent at different doses in a Colo-205 (colorectal cancer) xenograft model and in an A549 (NSCLC) xenograft model. Groups of animals (n=5) were dosed with olaparib (i.p.) 5 days on, 2 days off using 10-100 mg/kg doses.

Data set [2] concerns A549 (NSCLC) xenograft model. The data set can be described thus: In vivo efficacy/synergy study, relative tumor volume in A549 xenograft model. Here is the method:
(§1) An in vivo efficacy study was conducted with olaparib alone as a single agent. […] Groups of animals (n=5) were dosed with olaparib (i.p.) 5 days on, 2 days off using 10-100 mg/kg doses.
(§2) Combination groups (n=5) were dosed with olaparib (i.p.) 5 days on, 2 days off, using a 50 mg/kg dose for 28 days.

In data set [3] the test system is Colo-205 (colorectal cancer) xenograft model. Briefly: In vivo efficacy/synergy study, relative tumor volume in Colo-205 xenograft model. The conditions noted are these: for Relative tumor volume: 5 days on. As to the method: as §1, §2
Data set [4] in a line: Animal tolerability observation during BAY-1895344 dosing in the Colo-205 xenograft study. The class given is in vivo. The conditions noted are these: Example 2: BAY-1895344 three times a week starting with 40 mg/kg, dose gradually reduced to 20 mg/kg.

Consider `O=C(c1cc(Cc2n[nH]c(=O)c3ccccc23)ccc1F)N1CCN(C(=O)C2CC2)CC1` [olaparib], for which, in data set [1], the “DSB formation by immunohistochemical analysis of y-H2AX foci” value is on record as “no increase in DSB formation”. Moreover, the “Relative tumor volume (single agent efficacy)” value is “modest efficacy as a single agent; also recorded: did not appear to be a dose response” in data set [2] (Example 3: olaparib i.p. 5 days on, 2 days off, 10-100 mg/kg doses (FIG. 6B)) and “modest efficacy as a single agent; also recorded: did not appear to be a dose response” in data set [3] (Example 3: olaparib i.p. 5 days on, 2 days off, 10-100 mg/kg doses (FIG. 6A)). For the same compound, the Relative tumor volume result in data set [2] (Example 4, dosing schedule 1 (FIG. 7): [225Ac]-FPI-1434 200 nCi, olaparib i.p. 50 mg/kg, 5 days on, 2 days off for 28 days, pre-dosed 3 times prior to [225Ac]-FPI-1434, up to 28 days) is reported as “no apparent difference in tumor volume over time”; in data set [3] (Example 4, dosing schedule 1 (FIG. 7): [225Ac]-FPI-1434 50 nCi, olaparib i.p. 50 mg/kg, 2 days off for 28 days, pre-dosed 3 times prior to [225Ac]-FPI-1434, up to 28 days) it was “demonstrated some reduction in tumor volume over time”; in data set [3] (Example 5, dosing schedule 2 (FIG. 9): [225Ac]-FPI-1434 50 nCi, olaparib i.p. 50 mg/kg, 2 days off for 28 days, first dose 24 hours after FPI-1434, up to 28 days), “demonstrated significant reduction in tumor volume overtime”; in data set [3] (Example 6 (FIG. 12): lower effective doses, [225Ac]-FPI-1434 20 nCi and olaparib 25 mg/kg i.p., 2 days off from 24 hours after until day 30), “no or limited therapeutic effect”.

`C[C@@H]1COCCN1c1cc(-c2ccnn2C)c2ccnc(-c3ccn[nH]3)c2n1` [BAY-1895344]: the Animal somnolence result in data set [4] was “transient animal somnolence at the higher doses”.
